# From patent US20260028364A1, “CATIONIC CHROMENONES AND THEIR USE IN ONCOLOGY” (FLORATEK PHARMA S.A., priority 2022, published 2026)
# Experiments:
# Type in all cases: cell-based
# [1] = molecular target: Toll-like Receptor (TLR4); experiment: SelectScreen CellSensor pathway inhibition, Toll-like Receptor (TLR4); details: NFkB-bla THP-1, stimulus LPS
# Method: (§1) Inhibition of various cellular pathways known to be involved in malignancy was tested using the SelectScreen Cell-based Pathway Profiling GeneBLAzer™ cell signaling pathway specific CellSensor™ cell lines ((Thermo Fisher). The assay is based on a beta-lactamase reporter activity which is modulated and can be measured quantitatively and selectively with the LiveBLAzer™-FRET B/G Loading Substrate. SelectScreen Cell-Based Pathway Profiling Service uses XLfit from IDBS. The dose response curve is curve fit to model number 205 (sigmoidal dose-response model). Custom logic was built by Thermo Fisher for the data analysis tool to address the different compound characteristics that can be observed with functional assays.
# Toll-like Receptor (TLR4)—NFKB-bla THP-1—Inhibitor Screen, Activated by LPS
# NFKB-bla THP-1 cells are thawed and resuspended in Assay Media (RPMI, 0.5% dialyzed FBS, 0.1 mM NEAA, 1 mM Sodium Pyruvate, 100 U/mL/[…] Pen/Strep) to a concentration of 625,000 cells/mL. 32 μL of cell suspension is added to each well of a 384-well TC-Treated assay plate. Cells in Assay Media are incubated for 16-24 hours in the plate at 37° C./5% CO2 in a humidified incubator. […] The plate is read on a fluorescence plate reader.
# Oxidative Stress = experiment: SelectScreen CellSensor pathway inhibition, Oxidative Stress; details: ARE-bla HepG2, stimulus tBHQ
# Method: as §1
# Oxidative Stress—ARE-bla HepG2—Inhibitor Screen, Activated by tBHQ
# ARE-bla HepG2 cells are thawed and resuspended in Assay Media (DMEM, 10% dialyzed FBS, 25 mM HEPES pH 7.3, 0.1 mM NEAA, 100 U/mL/100 μg/mL Pen/Strep) to a concentration of 375,000 cells/mL. 32 μL of cell suspension is added to each well of a 384-well Poly-D-Lysine assay plate. Cells in Assay Media are incubated for 16-24 hours in the plate at 37° C./5% CO2 in a humidified incubator. […] The plate is read on a fluorescence plate reader.
# JAK/STAT = experiment: SelectScreen CellSensor pathway inhibition, JAK/STAT; details: ISRE-bla Jurkat, stimulus IFN-alpha
# Method: as §1
# JAK/STAT—ISRE-bla HEK 293T—Inhibitor Screen, Activated by IFN-Alpha
# ISRE-bla HEK 293T cells are thawed and resuspended in Assay Media (OPTI-MEM, 0.5% dialyzed FBS, 0.1 mM NEAA, 1 mM Sodium Pyruvate, 100 U/mL/[…] Pen/Strep) to a concentration of 625,000 cells/mL. 32 μL of cell suspension is added to each well of a 384-well TC-Treated assay plate. Cells in Assay Media are incubated for 16-24 hours in the plate at 37° C./5% CO2 in a humidified incubator. […] 4 μL of 10× control activator IFN-alpha at the pre-determined EC80 concentration is added to wells containing the control inhibitor or compounds. […] The plate is read on a fluorescence plate reader.
# Wnt/Beta-Catenin = experiment: SelectScreen CellSensor pathway inhibition, Wnt/Beta-Catenin; details: LEF-TCF-bla HCT116, no stimulus (constitutively activated)
# Method: as §1
# Wnt/Beta-Catenin—LEF-TCF-bla HCT116—Inhibitor Screen, Constitutively Activated
# LEF-TCF-bla HCT116 cells are thawed and resuspended in Assay Media (OPTI-MEM, 0.5% dialyzed FBS, 0.1 mM NEAA, 1 mM Sodium Pyruvate, 100 U/mL/100 μg/mL Pen/Strep) to a concentration of 312,500 cells/mL. 32 μL of cell suspension is added to each well of a 384-well Poly-D-Lysine assay plate. Cells in Assay Media are incubated for 16-24 hours in the plate at 37° C./5% CO2 in a humidified incubator. 4 μL of a 10× serial dilution of ICG-001 (control inhibitor starting concentration, 25,000 nM) or compounds are added to appropriate wells of the plate. […] The plate is read on a fluorescence plate reader.
molecule,measurement,setting,value
"Cn1cc(C2=C(c3cn(CCCSC(=N)N)c4ccccc34)C(=O)NC2=O)c2ccccc21 [Ro-31-8220, reference compound]",IC50,[1],460 nM
same,IC50,Oxidative Stress,1670 nM
JAK Inhibitor I [reference compound],IC50,JAK/STAT,19 nM
"O=C1[C@H](Cc2ccc(O)cc2)N2C(=O)CCN(C(=O)NCc3ccccc3)[C@H]2CN1Cc1cccc2ccccc12 [ICG-001, reference compound]",IC50,Wnt/Beta-Catenin,1830 nM
